According to patent US8507504B2, “Process for producing bicycloaniline derivatives” (Merck Sharp & Dohme Corp., priority 2008, dated 2013):

System: Human colon cancer cells WiDr
Test: Tumor growth inhibitory effect, WiDr xenograft in nude rats, combined with gemcitabine
Assay type: in vivo, F344/N Jcl-rnu nude rats
Conditions: summary of Table 1
Method: Pharmacological Test 2 (Tumor Growth Inhibitory Effect)
Human colon cancer cells WiDr (obtained from ATCC) were implanted into the subcutaneous area of the back of F344/N Jcl-rnu nude rats. 12 days after the implantation, 5 mg/kg of gemcitabine (Gemzar, from Eli Lily) was intravenously administered to them; and after 24 hours, a test compound suspended in a solvent (0.5% methyl cellulose) was orally administered thereto. This was repeated once a week for 3 weeks. The tumor volume (0.5×major diameter×(minor diameter)^2) was measured on days 0, 3, 6, 10, 13, 17, 20, 24 and 27 (the first gemcitabine administration is on day 0). The relative tumor volume was calculated, based on the tumor volume on day 0, as 1. The tumor growth rate (% T/C) was obtained according to the formulae mentioned below.
In case where the tumor volume change from day 0 in the test compound administration group is more than 0 (>0): % T/C=(tumor volume change in the test compound group on days 3, 6, 10, 13, 17, 20, 24 and 27/tumor volume change in the control group on days 3, 6, 10, 13, 17, 20, 24 and 27)×100.
In case where the tumor volume change from day 0 in the test compound administration group is less than 0 (<0): % T/C=(tumor volume change in the test compound group on days 3, 6, 10, 13, 17, 20, 24 and 27/tumor volume […] in the test compound group on day 0)×100. […]

Nc1ccn([C@@H]2O[C@H](CO)[C@@H](O)C2(F)F)c(=O)n1 [Gemcitabine, gemcitabine]
tumor growth rate (result in words): reduced the tumor growth rate
